Laboratory results: EPA's ToxRefDB 2

Legend:
rat [1] = conditions: Multigenerational reproductive toxicity study, sprague dawley, Oral, Gavage/Intubation, dose end: 2 generation
rat [2] = conditions: Subchronic oral toxicity in rodents, sprague dawley, Gavage/Intubation, dose end: 90 day, group: systemic
rat [3] = conditions: Multigenerational reproductive toxicity study, sprague dawley, Oral, Gavage/Intubation, dose end: 1 generation
rat [4] = conditions: Prenatal developmental toxicity study, sprague dawley, Oral, Gavage/Intubation, dose end: 20 GD
rat [5] = conditions: Subchronic oral toxicity in rodents, sprague dawley, Gavage/Intubation, dose end: 90 day, group: systemic; remark: listed apart in the source
rat [6] = conditions: Prenatal developmental toxicity study, sprague dawley, Oral, Gavage/Intubation, dose end: 15 GD
rat [7] = conditions: Subchronic oral toxicity in rodents, sprague dawley, Feed, dose end: 13 week, group: systemic
mouse [8] = conditions: Carcinogenicity, cd1, Oral, Feed, dose end: 78 week, group: systemic
rat [9] = conditions: Combined chronic toxicity/carcinogenicity, sprague dawley, Oral, Feed, dose end: 24 month, group: systemic
mouse [10] = conditions: Combined chronic toxicity/carcinogenicity, b6c3f1, Oral, Feed, dose end: 104 week, group: systemic
rat [11] = conditions: Multigenerational reproductive toxicity study, sprague dawley, Oral, Feed, dose end: 2 generation
dog [12] = conditions: Subchronic oral toxicity in nonrodent, beagle, Gavage/Intubation, dose end: 13 week, group: systemic, systemic / hematology / mean corpuscular hemoglobin (mch) / mean corpuscular hemoglobin (mch) + systemic / hematology / mean corpuscular …
rabbit = conditions: Prenatal developmental toxicity study, new zealand white, Oral, Gavage/Intubation, dose end: 19 GD
rat [13] = conditions: Combined chronic toxicity/carcinogenicity, sprague dawley, Oral, Feed, dose end: 104 week, group: systemic
rat [14] = conditions: Prenatal developmental toxicity study, sprague dawley, Oral, Gavage/Intubation, dose end: 15 GD; remark: listed apart in the source
dog [15] = conditions: Chronic toxicity; beagle; Oral; Gavage/Intubation; dose end: 52 week; group: systemic; systemic / clinical chemistry / albumin / albumin + systemic / clinical chemistry / alkaline phosphatase (alp/alk) / alkaline phosphatase (…
rat [16] = conditions: Subchronic oral toxicity in rodents, other, Feed, dose end: 90 day, group: systemic
mouse [17] = conditions: Subchronic oral toxicity in rodents, b6c3f1, Feed, dose end: 15 week
[18] = group: offspring, systemic / organ weight / spleen / absolute
[19] = group: offspring, systemic / organ weight / spleen / absolute + systemic / pathology microscopic / kidney / edema + systemic / pathology microscopic / kidney…
[20] = group: parental, systemic / in life observation / body weight / body weight + systemic / in life observation / body weight / body weight gain + systemic / in…
[21] = systemic / clinical chemistry / albumin / albumin + systemic / clinical chemistry / protein / protein + systemic / pathology microscopic / …
[22] = systemic / organ weight / spleen / absolute + systemic / organ weight / spleen / relative to body weight + systemic / organ weight / spleen…
[23] = group: offspring, systemic / in life observation / body weight / offspring (pup) weight
[24] = group: parental, systemic / in life observation / body weight / body weight gain + systemic / in life observation / clinical signs / fur (altered appearance…
[25] = group: developmental, systemic / in life observation / body weight / fetal weight
[26] = group: maternal, systemic / in life observation / body weight / body weight + systemic / in life observation / body weight / body weight gain + systemic / in…
[27] = systemic / clinical chemistry / peroxisomal beta-oxidation analysis / peroxisomal beta-oxidation analysis + systemic / organ weight / liver…
[28] = systemic / hematology / neutrophils / neutrophils
[29] = group: developmental, developmental / developmental malformation / bone / incomplete ossification + developmental / developmental malformation / bone / split …
[30] = group: maternal, systemic / in life observation / body weight / body weight gain + systemic / in life observation / clinical signs / salivation + …
[31] = systemic / in life observation / food consumption / food consumption
[32] = systemic / in life observation / food consumption / food consumption + systemic / clinical chemistry / cholesterol / cholesterol + systemic…
[33] = systemic / clinical chemistry / albumin / albumin + systemic / clinical chemistry / alkaline phosphatase (alp/alk) / alkaline phosphatase (…
[34] = systemic / organ weight / kidney / relative to body weight + systemic / organ weight / kidney / absolute
[35] = group: offspring, systemic / in life observation / body weight / offspring (pup) weight gain + systemic / in life observation / body weight / offspring (pup) …
[36] = group: parental, systemic / in life observation / body weight / body weight + systemic / in life observation / body weight / body weight gain
[37] = group: reproductive, reproductive / offspring survival early / litter size / litter size
[38] = group: reproductive, reproductive / offspring survival early / litter size / litter size + reproductive / reproductive performance / fertility / fertility
[39] = group: developmental, systemic / in life observation / body weight / fetal weight + developmental / developmental malformation / bone / misshapen + developmental…
[40] = group: maternal, reproductive / reproductive performance / postimplantation loss / postimplantation loss + reproductive / reproductive performance / …
[41] = systemic / in life observation / body weight / body weight gain
[42] = systemic / in life observation / body weight / body weight gain + systemic / clinical chemistry / albumin / albumin + systemic / clinical …
[43] = group: developmental, developmental / developmental malformation / bone / absent
[44] = group: maternal, systemic / in life observation / body weight / body weight gain
[45] = group: maternal, reproductive / reproductive performance / fertility / fertility
[46] = group: systemic, systemic / clinical chemistry / alkaline phosphatase (alp/alk) / alkaline phosphatase (alp/alk) + systemic / hematology / hematocrit (hct…
[47] = group: systemic, systemic / in life observation / food consumption / food consumption

## O=S(=O)([O-])C(F)(F)C(F)(F)C(F)(F)C(F)(F)F.[K+] [PFBS-K]
Rat [1]; [18]
  LEL: 30 mg/kg/day
  NEL: < 30 mg/kg/day
Rat [1]; [19]
  LOAEL: > 1000 mg/kg/day
  NOAEL: ≥ 1000 mg/kg/day
Rat [1]; [20]
  LOAEL: > 1000 mg/kg/day
  NEL: 100 mg/kg/day
  NOAEL: ≥ 1000 mg/kg/day
Rat [1]; group: parental, systemic / pathology microscopic / kidney / edema + systemic / pathology microscopic / kidney / hyperplasia + systemic / organ weight / …
  LEL: 300 mg/kg/day
Rat [2]; [21]
  LOAEL: > 600 mg/kg/day
  NOAEL: ≥ 600 mg/kg/day
Rat [2]; [22]
  LEL: 60 mg/kg/day
  NEL: < 60 mg/kg/day

## O=C([O-])C(F)(F)C(F)(F)C(F)(F)C(F)(F)C(F)(F)F.[Na+] [Sodium perfluorohexanoate]
Rat [3]; [23]
  LEL: 500 mg/kg/day
  LOAEL: > 500 mg/kg/day
  NEL: 100 mg/kg/day
  NOAEL: ≥ 500 mg/kg/day
Rat [3]; group: parental, systemic / in life observation / body weight / body weight gain
  LEL: 100 mg/kg/day
Rat [3]; [24]
  LOAEL: > 500 mg/kg/day
  NEL: 20 mg/kg/day
  NOAEL: ≥ 500 mg/kg/day
Rat [4]; [25]
  LEL: 500 mg/kg/day
  LOAEL: > 500 mg/kg/day
  NEL: 100 mg/kg/day
  NOAEL: ≥ 500 mg/kg/day
Rat [4]; [26]
  LEL: 500 mg/kg/day
  LOAEL: > 500 mg/kg/day
  NEL: 100 mg/kg/day
  NOAEL: ≥ 500 mg/kg/day
Rat [5]; [27]
  LOAEL: > 500 mg/kg/day
  NOAEL: ≥ 500 mg/kg/day
Rat [5]; [28]
  LEL: 20 mg/kg/day
  NEL: < 20 mg/kg/day

## CCSC(C)CC1CC(=O)C(C(CC)=NOC/C=C/Cl)=C(O)C1 (stereo not drawn) [Clethodim]
Rat [6]; group: developmental, developmental / developmental malformation / bone / absent + developmental / developmental malformation / mouth / jaw / maxillary …
  LEL: 100 mg/kg/day
Rat [6]; [29]
  LOAEL: 350 mg/kg/day
  NEL: 10 mg/kg/day
  NOAEL: 100 mg/kg/day
Rat [6]; group: maternal, systemic / in life observation / body weight / body weight gain + systemic / in life observation / clinical signs / salivation
  LOAEL: 350 mg/kg/day
Rat [6]; group: maternal, systemic / in life observation / body weight / body weight gain + systemic / in life observation / clinical signs / salivation + systemic / …
  LEL: 350 mg/kg/day
Rat [6]; [30]
  NEL: 100 mg/kg/day
  NOAEL: 100 mg/kg/day
Rat [7]; [31]
  LEL: 25 mg/kg/day
  LOAEL: 25 mg/kg/day
Rat [7]; [32]
  NEL: 2.3 mg/kg/day
  NOAEL: 2.3 mg/kg/day
Mouse [8]; systemic / pathology microscopic / liver / adenoma + systemic / pathology microscopic / lung / adenoma + systemic / hematology / erythrocyte…
  LEL: 30 mg/kg/day
Mouse [8]; systemic / pathology microscopic / liver / adenoma + systemic / pathology microscopic / lung / adenoma + systemic / pathology microscopic / …
  NEL: 3 mg/kg/day
Mouse [8]; systemic / pathology microscopic / liver / hypertrophy + systemic / organ weight / liver / relative to body weight + systemic / organ weight…
  LOAEL: 150 mg/kg/day
Mouse [8]; systemic / pathology microscopic / liver / hypertrophy + systemic / pathology microscopic / liver / adenoma + systemic / hematology / …
  NOAEL: 30 mg/kg/day
Rat [9]; systemic / in life observation / body weight / body weight gain + systemic / organ weight / liver / absolute + systemic / pathology …
  NOAEL: 19 mg/kg/day
Rat [9]; systemic / in life observation / body weight / body weight gain + systemic / organ weight / liver / relative to body weight + systemic / …
  LOAEL: 100 mg/kg/day
Rat [9]; systemic / pathology microscopic / bone marrow / hypocellularity
  LEL: 0.64 mg/kg/day
Rat [9]; systemic / pathology microscopic / bone marrow / hypocellularity + systemic / in life observation / body weight / body weight + systemic / …
  NEL: 0.18 mg/kg/day

## CON(C)C(=O)Nc1ccc(Oc2ccc3c(c2)OC(C)(OC)CC3(C)C)cc1 (stereo not drawn) [Metobenzuron]
Mouse [10]; [33]
  LOAEL: 139 mg/kg/day
  NOAEL: 41.1 mg/kg/day
Mouse [10]; [34]
  LEL: 6.9 mg/kg/day
  NEL: < 6.9 mg/kg/day
Rat [11]; group: offspring, systemic / in life observation / body weight / offspring (pup) weight gain
  LOAEL: 18.8 mg/kg/day
Rat [11]; [35]
  LEL: 18.8 mg/kg/day
  NEL: 3.75 mg/kg/day
  NOAEL: 3.75 mg/kg/day
Rat [11]; [36]
  LEL: 18.8 mg/kg/day
  LOAEL: 37.5 mg/kg/day
  NEL: 3.75 mg/kg/day
  NOAEL: 18.8 mg/kg/day
Rat [11]; [37]
  LEL: 18.8 mg/kg/day
  LOAEL: 18.8 mg/kg/day
Rat [11]; [38]
  NEL: 3.75 mg/kg/day
  NOAEL: 3.75 mg/kg/day
Dog [12]
  LEL: 25 mg/kg/day
  LOAEL: 25 mg/kg/day
  NEL: 5 mg/kg/day
  NOAEL: 5 mg/kg/day
rabbit; [25]
  LOAEL: 100 mg/kg/day
rabbit; [39]
  LEL: 100 mg/kg/day
  NEL: 50 mg/kg/day
  NOAEL: 50 mg/kg/day
rabbit; [40]
  LEL: 100 mg/kg/day
  LOAEL: 100 mg/kg/day
  NEL: 50 mg/kg/day
  NOAEL: 50 mg/kg/day
Rat [13]; systemic / in life observation / body weight / body weight
  LEL: 4.4 mg/kg/day
Rat [13]; [41]
  LOAEL: 23.1 mg/kg/day
Rat [13]; [42]
  NEL: 1.5 mg/kg/day
  NOAEL: 4.4 mg/kg/day
Rat [14]; [43]
  LEL: 25 mg/kg/day
  NEL: < 25 mg/kg/day
Rat [14]; [25]
  LOAEL: 50 mg/kg/day
Rat [14]; group: developmental, systemic / in life observation / body weight / fetal weight + developmental / developmental malformation / bone / absent + developmental / …
  NOAEL: 25 mg/kg/day
Rat [14]; [44]
  LEL: 25 mg/kg/day
  LOAEL: 25 mg/kg/day
  NEL: < 25 mg/kg/day
  NOAEL: < 25 mg/kg/day
Dog [15]
  LEL: 75 mg/kg/day
  LOAEL: 75 mg/kg/day
  NEL: 5 mg/kg/day
  NOAEL: 5 mg/kg/day
Rat [16]; [41]
  LEL: 7.29 mg/kg/day
  LOAEL: 45 mg/kg/day
  NEL: < 7.29 mg/kg/day
Rat [16]; [42]
  NOAEL: 6.05 mg/kg/day
Mouse [17]; [45]
  LEL: 308 mg/kg/day
  LOAEL: > 308 mg/kg/day
  NEL: 91 mg/kg/day
  NOAEL: ≥ 308 mg/kg/day
Mouse [17]; [46]
  LOAEL: 91 mg/kg/day
  NOAEL: 20 mg/kg/day
Mouse [17]; [47]
  LEL: 25 mg/kg/day
  NEL: < 25 mg/kg/day
